Four compounds from ChEMBL document CHEMBL1146520, “Sterol and triterpenoid constituents of Verbena littoralis with NGF-potentiating activity” (J Nat Prod, 2003) can be followed below.

Common to all, as to format: functional, cell-based
Assay [1] concerns PC-12. Kind of assay: Enhancement of neurite outgrowth in rat PC12D cells up to 30 uM in absence of nerve growth factor.
Assay [2] deals with PC-12. Description: Enhancement of nerve growth factor-stimulated neurite outgrowth in rat PC12D cells at 1 to 3 uM.
Assay [3] deals with PC-12. Kind of assay: Enhancement of nerve growth factor-stimulated neurite outgrowth in rat PC12D cells at 3 to 10 uM.

Active and inactive are the calls of the source. The rule behind the calls is not given here.

For the compound `C[C@H]1[C@H](C)CC[C@]2(C(=O)O)CC[C@]3(C)C(=CC[C@@H]4[C@@]5(C)CC[C@H](O)C(C)(C)[C@@H]5CC[C@]43C)[C@H]12`, the outcome in assay [1] was inactive. Moreover, the result in assay [2] was Active. Turning to `CC1(C)CC[C@]2(C(=O)O)CC[C@]3(C)C(=CC[C@@H]4[C@@]5(C)CC[C@H](O)C(C)(C)[C@@H]5CC[C@]43C)[C@@H]2C1`, the outcome in assay [1] was inactive. In addition, the result in assay [3] was Active. For `CC[C@H](C[C@@H](O)[C@@H](C)[C@H]1CC[C@H]2[C@@H]3[C@H](O)C=C4C[C@@H](O)CC[C@]4(C)[C@H]3CC[C@]12C)C(C)C` the same measures were “inactive” and “Active”. Take `CC[C@H](C[C@@H](O)[C@@H](C)[C@H]1CC[C@H]2[C@@H]3[C@H](O)C=C4[C@@H](O)[C@@H](O)CC[C@]4(C)[C@H]3CC[C@]12C)C(C)C`: the outcome in assay [1] was inactive.
